Experimental data published in PubChem BioAssay AID1918996 (Molecular Pharmacology Branch, DTP, NCI, 2023).
Each block holds one compound with its values, some of them ahead of it.

Tested on: 349418-098-R-PDC complex spheroid growth
Assay: Anticancer human tumor 349418-098-R-PDC patient-derived lung adenocarcinoma cell line growth inhibition [AhR]
Conditions: for IC50: curve of first compound; for viability, T/C: stronger effect = lower value
How it was run: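 Spheroids combined tumor cells with HUVEC endothelial cells and human MSCs as stroma. AhR antagonists were paired with standard or investigational drugs, each dosed in half-log steps down from near clinical Cmax, or from 10 microM where Cmax was unknown.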

[1] = second compound 0.1 µM, first compound 0.0316 µM
[2] = second compound 0.1 µM, first compound 0.1 µM
[3] = second compound 0.1 µM, first compound 0.316 µM
[4] = second compound 0.1 µM, first compound 1 µM
[5] = second compound 0.1 µM, first compound 3.16 µM
[6] = second compound 0.1 µM, first compound 10 µM
[7] = second compound 0.316 µM, first compound 0.0316 µM
[8] = second compound 0.316 µM, first compound 0.1 µM
[9] = second compound 0.316 µM, first compound 0.316 µM
[10] = second compound 0.316 µM, first compound 1 µM
[11] = second compound 0.316 µM, first compound 3.16 µM
[12] = second compound 0.316 µM, first compound 10 µM
[13] = second compound 1 µM, first compound 0.0316 µM
[14] = second compound 1 µM, first compound 0.1 µM
[15] = second compound 1 µM, first compound 0.316 µM
[16] = second compound 1 µM, first compound 1 µM
[17] = second compound 1 µM, first compound 3.16 µM
[18] = second compound 1 µM, first compound 10 µM
[19] = second compound 3.16 µM, first compound 0.0316 µM
[20] = second compound 3.16 µM, first compound 0.1 µM
[21] = second compound 3.16 µM, first compound 0.316 µM
[22] = second compound 3.16 µM, first compound 1 µM
[23] = second compound 3.16 µM, first compound 3.16 µM
[24] = second compound 3.16 µM, first compound 10 µM
[25] = second compound 10 µM, first compound 0.0316 µM
[26] = second compound 10 µM, first compound 0.1 µM
[27] = second compound 10 µM, first compound 0.316 µM
[28] = second compound 10 µM, first compound 1 µM
[29] = second compound 10 µM, first compound 3.16 µM
[30] = second compound 10 µM, first compound 10 µM
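Note: spheroids exposed to agents for seven days before luminescence viability read.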
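Throughout, for viability, T/C: spheroids also contain HUVEC endothelial cells and human MSC stroma.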

IC50 (second compound 0.1 µM): 3.8 nM
IC50 (second compound 0.316 µM): < 0.949 nM
IC50 (second compound 1 µM): < 0.949 nM
IC50 (second compound 3.16 µM): < 0.949 nM
IC50 (second compound 10 µM): < 0.949 nM
SMILES: CCc1c2c(nc3ccc(O)cc13)-c1cc3c(c(=O)n1C2)COC(=O)[C@]3(O)CC + Cc1ccccc1N=Nc1ccc(NC(=O)c2ccnn2C)c(C)c1
viability, T/C (second compound 0.1 µM, first compound 0.000949 µM): 75.5%
viability, T/C (second compound 0.1 µM, first compound 0.003 µM): 57.2%
viability, T/C (second compound 0.1 µM, first compound 0.00949 µM): 22.3%
viability, T/C (second compound 0.1 µM, first compound 0.03 µM): 12.3%
viability, T/C (second compound 0.1 µM, first compound 0.0949 µM): 8.18%
viability, T/C (second compound 0.1 µM, first compound 0.3 µM): 7.18%
viability, T/C (second compound 0.316 µM, first compound 0.000949 µM): 44.2%
viability, T/C (second compound 0.316 µM, first compound 0.003 µM): 32.8%
viability, T/C (second compound 0.316 µM, first compound 0.00949 µM): 21%
viability, T/C (second compound 0.316 µM, first compound 0.03 µM): 9.78%
viability, T/C (second compound 0.316 µM, first compound 0.0949 µM): 7.84%
viability, T/C (second compound 0.316 µM, first compound 0.3 µM): 5.78%
viability, T/C (second compound 1 µM, first compound 0.000949 µM): 29.9%
viability, T/C (second compound 1 µM, first compound 0.003 µM): 27.3%
viability, T/C (second compound 1 µM, first compound 0.00949 µM): 19.7%
viability, T/C (second compound 1 µM, first compound 0.03 µM): 10.3%
viability, T/C (second compound 1 µM, first compound 0.0949 µM): 7.94%
viability, T/C (second compound 1 µM, first compound 0.3 µM): 6.46%
viability, T/C (second compound 3.16 µM, first compound 0.000949 µM): 34.6%
viability, T/C (second compound 3.16 µM, first compound 0.003 µM): 33.5%
viability, T/C (second compound 3.16 µM, first compound 0.00949 µM): 15.8%
viability, T/C (second compound 3.16 µM, first compound 0.03 µM): 10%
viability, T/C (second compound 3.16 µM, first compound 0.0949 µM): 7.13%
viability, T/C (second compound 3.16 µM, first compound 0.3 µM): 6.47%
viability, T/C (second compound 10 µM, first compound 0.000949 µM): 37.7%
viability, T/C (second compound 10 µM, first compound 0.003 µM): 27.6%
viability, T/C (second compound 10 µM, first compound 0.00949 µM): 15.2%
viability, T/C (second compound 10 µM, first compound 0.03 µM): 10.4%
viability, T/C (second compound 10 µM, first compound 0.0949 µM): 7.83%
viability, T/C (second compound 10 µM, first compound 0.3 µM): 6.4%

IC50 (second compound 0.1 µM): 5800 nM
IC50 (second compound 0.316 µM): 6030 nM
IC50 (second compound 1 µM): 6540 nM
IC50 (second compound 3.16 µM): 3540 nM
IC50 (second compound 10 µM): 3260 nM
SMILES: CC1(C)CCC(CN2CCN(c3ccc(C(=O)NS(=O)(=O)c4ccc(NCC5CCOCC5)c([N+](=O)[O-])c4)c(Oc4cnc5[nH]ccc5c4)c3)CC2)=C(c2ccc(Cl)cc2)C1 + Cc1ccccc1N=Nc1ccc(NC(=O)c2ccnn2C)c(C)c1
viability, T/C [1]: 116%
viability, T/C [2]: 111%
viability, T/C [3]: 116%
viability, T/C [4]: 92.9%
viability, T/C [5]: 71.6%
viability, T/C [6]: 31.6%
viability, T/C [7]: 81.5%
viability, T/C [8]: 81.1%
viability, T/C [9]: 64.4%
viability, T/C [10]: 70%
viability, T/C [11]: 86.1%
viability, T/C [12]: 29.1%
viability, T/C [13]: 101%
viability, T/C [14]: 82.1%
viability, T/C [15]: 84.7%
viability, T/C [16]: 79.7%
viability, T/C [17]: 85.7%
viability, T/C [18]: 29.2%
viability, T/C [19]: 76.9%
viability, T/C [20]: 65.9%
viability, T/C [21]: 73.3%
viability, T/C [22]: 66.1%
viability, T/C [23]: 52%
viability, T/C [24]: 26%
viability, T/C [25]: 54.6%
viability, T/C [26]: 59.8%
viability, T/C [27]: 65.1%
viability, T/C [28]: 51.8%
viability, T/C [29]: 52%
viability, T/C [30]: 25.9%

IC50 (second compound 0.1 µM): 1530 nM
IC50 (second compound 0.316 µM): 1710 nM
IC50 (second compound 1 µM): 1410 nM
IC50 (second compound 3.16 µM): 750 nM
IC50 (second compound 10 µM): 1270 nM
SMILES: CC1COCCN1c1cc(C2(S(C)(=N)=O)CC2)nc(-c2ccnc3[nH]ccc23)n1 (stereo not given) + CC(CO)NC(=O)c1cc(-c2ccc(Cl)cc2)nn(-c2cnn(C)c2)c1=O
viability, T/C [1]: 84.5%
viability, T/C [2]: 71.8%
viability, T/C [3]: 69.6%
viability, T/C [4]: 65.7%
viability, T/C [5]: 24.4%
viability, T/C [6]: 12.5%
viability, T/C [7]: 70%
viability, T/C [8]: 80.7%
viability, T/C [9]: 66.8%
viability, T/C [10]: 73.2%
viability, T/C [11]: 24.2%
viability, T/C [12]: 10.4%
viability, T/C [13]: 67.6%
viability, T/C [14]: 89.1%
viability, T/C [15]: 85.2%
viability, T/C [16]: 59%
viability, T/C [17]: 25.7%
viability, T/C [18]: 12.5%
viability, T/C [19]: 83.9%
viability, T/C [20]: 55.9%
viability, T/C [21]: 78.9%
viability, T/C [22]: 42.4%
viability, T/C [23]: 21.4%
viability, T/C [24]: 13.4%
viability, T/C [25]: 59.1%
viability, T/C [26]: 56.9%
viability, T/C [27]: 59.8%
viability, T/C [28]: 57.7%
viability, T/C [29]: 20.2%
viability, T/C [30]: 11.7%
